Data from patent US20230295088A1, “INSULIN SENSITIZERS FOR THE TREATMENT OF DIABETES MELLITUS” (University of Iowa Research Foundation, priority 2020, published 2023).
“Also recorded” adds a separate entry of the source.

Columns and labels:
Unc119 KO HBG4 cells = assay: 3H-Deoxy-D-Glucose uptake in Unc119 KO HBG4 cells; assay type: cell-based, mouse
Procedure: Unc119 and Unc119b are important for the insulin sensitizing effect of C59. After identifying Unc119 proteins as molecular targets for C59, it was tested whether those proteins were responsible for the insulin sensitizing activity of C59. To this end Unc119 and Unc119b KO HBG4 cells were generated using CRISPR/Cas9 technology. For each of those cell lines two gRNA surrounding the start codon were used, thus resulting in a deletion of a fragment of the Unc119 genes that includes the ATG. Deletion of Unc119 and Unc119b in clonal cell lines were screened and verified by PCR (FIG. 4E). The effect of C59 on insulin-stimulated. […] To further test this finding, 3H-Deoxy-D-Glucose uptake in WT, Unc119 KO and Unc119b KO HBG4 cells treated with vehicle, insulin, C59 alone and C59 with insulin was measured.

[1] = system: GLUT4 expressing tissues of DIO mice; assay: PET/CT measurement of 18F-FDG uptake in DIO mice; assay type: in vivo, mouse; conditions: HFD supplemented with C59 for two weeks
Procedure: C59 improves glucose uptake in storage tissues of DIO mice. Since insulin resistance results in a failure to transport glucose from the circulation to tissues that can use it as a source of energy or store it, it was tested whether treating insulin resistant DIO mice with C59 results in an increase in glucose uptake in GLUT4 expressing tissues. For this, insulin resistant DIO mice (fed a HFD for 10 weeks) were fed HFD or HFD supplemented with C59 for two weeks before injection of ^18F-FDG and uptake of the radioactive glucose tracer was measured by PET/CT.

Unc119b = biological target: T1, Unc119b (Homo sapiens, UniProt A6NIH7); assay: Luminescence complementation based thermal shift assay, Unc119b-HiBiT; assay type: binding; conditions: crude extract of Unc119b-HiBiT transfected cells, 10 minutes incubation, heated 3 minutes
T1 construct: expressed in transfected cells
Description: (§1) Identification of the molecular target of C59. Since the discovery of C59 as an insulin sensitizer was achieved using a phenotypic screen, the molecular target of the compound was unknown. To identify the target, a Proteome Integral Solubility Alteration (PISA) assay was used. […] To measure the shift in thermal stability, constructs coding for Unc119-HiBiT and Unc119b-HiBit were generated, thus allowing the quantitative detection of those proteins by adding LgBiT and furimazin to the lysates and measuring luminescence. Crude extract from cells transfected with Unc119-HiBiT or Unc119b-HiBiT, were incubated with DMSO or C59 for 10 minutes, aliquoted, heated for 3 minutes at the indicated temperature and allowed to cool down to room temperature before adding LgBiT and furimazin and reading luminescence on a plate reader.

Unc119 = biological target: T2, Unc119 (Homo sapiens, UniProt Q13432); assay: Luminescence complementation based thermal shift assay, Unc119-HiBiT; assay type: binding; conditions: crude extract of Unc119-HiBiT transfected cells, 10 minutes incubation, heated 3 minutes
T2 construct: expressed in transfected cells
Description: as §1

[2] = system: GLUT4 translocation in C2C12 myoblast cell line stably expressing HiBiT-GLUT4 (HBG4); assay: HiBiT (NanoBit) luminescence GLUT4 translocation assay in HBG4 C2C12 cells; assay type: cell-based, mouse
Description: An assay was used to identify potentiators of insulin-stimulated GLUT4 translocation. In one embodiment, the assay employs Nanobit technology. This technology is based on the recombination of two complementary fragments, HiBiT and LgBiT, of the Nanoluc luciferase. HiBit was fused to an extracellular region of GLUT4 to allow for the rapid quantitation of its the surface density in live cells by adding the reconibinantly produced complementary fragment LgBiT and the luciferase substrate. Since LgBiT is not membrane permeant, only proteins at the plasma membrane are quantified. To measure GLUT4 translocation, a stable C2C12 myoblast cell line was prepared by expressing a HiBiT-tagged mouse GLUT4. […] The Chembridge Diverset library of 49,600 compounds was screened and 1264 hits were identified. A subset of those hits were selected and retested in the presence and absence of insulin.
Development of a HTS assay for real-time measurement of GLUT4 translocation. To measure GLUT4 translocation in a homogenous and HIS amenable manner, NanoBit technology was used. This technology relies on the rapid recombination of 2 fragments of the Nanoluc luciferase (HiBit and LgBiT) with high affinity for each other. Fragments have no enzymatic activity on their own but generate a bright luminescent signal when recombined. A C2C12 myoblast cell line was prepared that stably expressed HiBiT-GLUT4 (HBG4), in which the small 11 amino acid HiBiT fragment was inserted into the first extracellular loop of GLUT4. A C-terminal mCherry was also added for microscopic detection. The C2C12 line was chosen as an in vitro model because it is derived from skeletal myoblasts and translocate GLUT4 in response to insulin. Detection of plasma membrane density of HBG4 is achieved by adding recombinant LgBit and substrate to live cells. The assay can be conducted as an endpoint where cells are incubated with insulin before measuring luminescence or as a kinetic assay by adding LgBiT and substrate at the beginning of the experiment and monitor real-time insulin-stimulated GLUT4 translocation.
An assay to measure GLUT4 translocation in a homogenous and HIS amenable manner using NanoBit technology was developed. This technology relies on the rapid recombination of 2 fragments of the Nanoiuc luciferase (HiBit and LgBiT) with high affinity for each other. Fragments have no enzymatic activity on their own but generate a bright luminescent signal when recombined. A C2C12 myoblast cell line stably expressing HiBiT-GLUT4 (HBG4), in which the small 11 amino acid HiBiT fragment was inserted into the first extracellular loop of GLUT4 was prepared. A C-terminal mCherry was also added for microscopic detection (FIGS. 1A and B). The C2C12 line was chosen as an in-vitro model because it is derived from skeletal myoblasts and translocates GLUT4 in response to insulin. Detection of plasma membrane density of HBG4 is achieved by adding recombinant LgBit and substrate to live cells (FIG. 1C). The assay can be conducted as a kinetic assay by adding LgBiT and substrate at the beginning of the experiment and monitoring real-time insulin-stimulated GLUT4 translocation (FIGS. 1D and E).

lean mice = assay: Glucose tolerance test in lean mice; assay type: in vivo, mouse; conditions: single injection before GTT
Procedure: C3 improves glucose tolerance in lean and obese insulin resistant mice. To test whether C3 improves glucose handling, lean mice were injected with vehicle or C3 30 minutes before performing a glucose tolerance test. […] To further determine if C3 can reverse glucose intolerance, WT mice were made insulin-resistant by feeding them a high fat diet (HFD) for a period of 10 weeks. Diet induced obese (DIO) mice were then injected with vehicle or C3 for 2 weeks while remaining on HFD. […] Together those results establish in vivo efficacy of C3 for the treatment of insulin resistance.

T1 sequence (A6NIH7 whole entry, species assumed): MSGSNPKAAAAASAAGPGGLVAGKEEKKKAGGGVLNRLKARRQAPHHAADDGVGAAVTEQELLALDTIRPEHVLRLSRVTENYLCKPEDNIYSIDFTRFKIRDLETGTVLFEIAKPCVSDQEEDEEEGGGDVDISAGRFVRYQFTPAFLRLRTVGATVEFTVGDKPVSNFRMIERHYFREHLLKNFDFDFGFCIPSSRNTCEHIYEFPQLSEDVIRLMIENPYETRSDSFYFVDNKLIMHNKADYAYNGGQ

- thermostability shift for Unc119b (Unc119b): 6.7 C.
- thermostability shift for Unc119 (Unc119): 6.6 C.
- EC50 ([2]; Mus musculus, HBG4 C2C12 cells, with insulin, read-out: potency (enhancement of insulin effect on GLUT4 translocation)): 2.5 µM
Structure (SMILES): O=C(Nc1ccc(Cl)c(Cl)c1)C12CC3CC(CC(C3)C1)C2 [Compound C59]
- 3H-Deoxy-D-Glucose uptake, compound alone (Unc119 KO HBG4 cells; no insulin): did not stimulate
- insulin stimulated 3H-Deoxy-D-Glucose uptake (Unc119 KO HBG4 cells; with insulin): failed to do so
- 18F-FDG uptake in BAT [1]: significantly increased
- 18F-FDG uptake in WAT [1]: significantly increased
- 18F-FDG uptake in heart tissues [1]: significantly increased
- 18F-FDG uptake in skeletal muscles [1]: significantly increased
- efficacy compared with C3 ([2]; enhancement of insulin effect on GLUT4 translocation): higher; also recorded: improved efficacy
- insulin-stimulated GLUT4 translocation ([2]; in the presence of insulin, WT HBG4 C2C12 cells): enhanced; also recorded: retained activity; also recorded: increased
- glucose clearance in glucose tolerance test (lean mice): improvement
